Measured values as given in patent publication US5366966A, “Compound UCE6” (Kyowa Hakko Kogyo Co., Ltd., priority 1992, dated 1994).
pIC50: −log10 of the molar value.

Columns and labels:
[1] = Solubility; assay type: physicochemical
[2] = system: HeLaS3 cells; assay: Inhibition on the Growth of HeLaS3 Cells (Neutral Red staining); assay type: cell-based; conditions: Homo sapiens, HeLa S3, 72 hours at 37° C., absorbance at 550 nm, read-out: IC50 (the concentration of the test compound capable of inhibiting the growth of the cells at a ratio of 50%)
Method: (A) Inhibition on the Growth of HeLaS3 Cells
0.1 ml portions of a 3×10^4 cell/ml suspension of HeLaS3 cells [American Type Culture Collection (ATCC) CCL2.2]. in Minimum Essential Medium (MEM) medium (mfd. by Nissui Seiyaku) containing 10% of calf fetal serum and 2 mM of glutamine (hereinafter referred to as the medium A) were pipetted into a 96-well microtiter plate. 0.05 ml of the test compound optionally diluted with the medium A is added to each well, followed by incubating in a carbon dioxide gas incubator at 37° C. for 72 hours. After removing supernatant the culture 0.1 ml of the medium A containing 0.02% of Neutral Red is added to the residue. The cells are cultivated in the carbon dioxide gas incubator at 37° C. for additional one hour to thereby stain the cells. After removing the supernatant of culture, the residue was washed with saline once. The pigment is extracted with 0.001 N hydrochloric acid/30% ethanol and the absorbance at 550 nm is measured with a microplate reader. Then IC50 (the concentration of the test compound capable of inhibiting the growth of the cells at a ratio of 50%) is calculated on the basis of the comparison between the absorbance of untreated cells and that of the test compound-treated cells (at various concentration of the test compound).

Solubility ([1]; in dimethylsulfoxide (DMSO), N,N-dimethylformamide and pyridine): soluble | Solubility ([1]; in water, ethanol, methanol, ethyl acetate and chloroform): hardly soluble | pIC50 [2]: 7.74
Compound: Cc1c(O)cc2c(c1O)C(=O)c1c(cc3cc(O)cc(CC(=O)CC(C)O)c3c1O)C2=O (stereo not drawn) [UCE6]
